Several values for one entry are separate records, joined by “and”; a condition that tells them apart may be missing. Equal values may be shown once. Toxic doses and inconclusive results are not listed. Rule as the data show it: active = T/C of 150% or more; inactive = T/C below 125%.
Tested on: L1210 leukemia ip in BDF1 mice, survival T/C
Test: NCI In Vivo Anticancer Drug Screen. Data for tumor model L1210 Leukemia (intraperitoneal) in B6D2F1 (BDF1) mice
Settings: endpoint: mean survival time, higher = longer survival
Summary of the method: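 Transplantable tumor model; survival measured in treated vs vehicle control mice. Value = treated/control.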

[1] = dose: 100.0 mg/kg/injection, schedule: Q04DX002 (ip), vehicle: Klucel (hydroxypropylcellulose) (HPC)
[2] = dose: 200.0 mg/kg/injection, schedule: Q04DX002 (ip), vehicle: Klucel (hydroxypropylcellulose) (HPC)
[3] = dose: 400.0 mg/kg/injection, schedule: Q04DX002 (ip), vehicle: Klucel (hydroxypropylcellulose) (HPC)
[4] = dose: 25.0 mg/kg/injection, schedule: Q04DX003 (ip), vehicle: saline
[5] = dose: 50.0 mg/kg/injection, schedule: Q04DX003 (ip), vehicle: saline
[6] = dose: 100.0 mg/kg/injection, schedule: Q04DX003 (ip), vehicle: saline
[7] = dose: 100.0 mg/kg/injection, schedule: Q01DX001 (ip), vehicle: Klucel (hydroxypropylcellulose) (HPC)
[8] = dose: 200.0 mg/kg/injection, schedule: Q01DX001 (ip), vehicle: Klucel (hydroxypropylcellulose) (HPC)
[9] = dose: 100.0 mg/kg/injection, schedule: Q04DX003 (ip), vehicle: saline with Tween-80
[10] = dose: 100.0 mg/kg/injection, schedule: Q01DX005 (ip), vehicle: saline
[11] = dose: 200.0 mg/kg/injection, schedule: Q01DX005 (ip), vehicle: saline
[12] = dose: 50.0 mg/kg/injection, schedule: Q01DX009 (ip), vehicle: saline with Tween-80
[13] = dose: 100.0 mg/kg/injection, schedule: Q01DX001 (ip), vehicle: saline
[14] = dose: 100.0 mg/kg/injection, schedule: Q01DX009 (ip), vehicle: Klucel (hydroxypropylcellulose) (HPC)
[15] = dose: 200.0 mg/kg/injection, schedule: Q01DX009 (ip), vehicle: Klucel (hydroxypropylcellulose) (HPC)
[16] = dose: 100.0 mg/kg/injection, schedule: Q01DX001 (ip), vehicle: carboxymethylcellulose (CMC)
[17] = dose: 200.0 mg/kg/injection, schedule: Q01DX001 (ip), vehicle: carboxymethylcellulose (CMC)
[18] = dose: 400.0 mg/kg/injection, schedule: Q01DX001 (ip), vehicle: carboxymethylcellulose (CMC)

Measured: T/C

CN(CCNC(=O)NCCCCCCNC(=O)NCCN(C)c1ccccc1)c1ccccc1
inactive: [1] 105 % of control | [2] 97 % of control | [3] 108 % of control

CCN(CC)CCNc1ncnc2[nH]ncc12
inactive: [4] 89 % of control | [5] 86 % of control | [6] 103 % of control and 89 % of control

CC1CCCCN1Cc1ccccc1COC(=O)c1cccc(Br)c1 (stereo not given)
inactive: [7] 104 % of control | [8] 96 % of control

O=S1(=O)c2ccc(cc2)N=CC=Nc2ccc1cc2
inactive: [9] 92 % of control | dose: 200.0 mg/kg/injection, schedule: Q04DX003 (ip), vehicle: saline with Tween-80 90 % of control | dose: 400.0 mg/kg/injection, schedule: Q04DX003 (ip), vehicle: saline with Tween-80 89 % of control

O=CNC(Cc1cccc(N(CCCl)CCCl)c1)C(=O)O (stereo not given)
inactive: dose: 8.0 mg/kg/injection, schedule: Q01DX Z (ip), vehicle: methylcellulose (MC) 106 % of control | dose: 12.0 mg/kg/injection, schedule: Q01DX Z (ip), vehicle: methylcellulose (MC) 95 % of control | dose: 18.0 mg/kg/injection, schedule: Q01DX Z (ip), vehicle: methylcellulose (MC) 103 % of control | dose: 27.0 mg/kg/injection, schedule: Q01DX Z (ip), vehicle: methylcellulose (MC) 97 % of control

CCCCCCC(O)CO (stereo not given)
inactive: [6] 105 % of control | dose: 200.0 mg/kg/injection, schedule: Q04DX003 (ip), vehicle: saline 112 % of control | dose: 400.0 mg/kg/injection, schedule: Q04DX003 (ip), vehicle: saline 109 % of control

O=C(NN1CCOCC1)c1ccc([N+](=O)[O-])s1
inactive: dose: 50.0 mg/kg/injection, schedule: Q01DX005 (ip), vehicle: saline 98 % of control | [10] 102 % of control | [11] 98 % of control

CCC(Cl)COP(=O)(OC(c1ccc(Cl)c(Cl)c1)P(=O)(OCC(Cl)CC)OCC(Cl)CC)C(CC)CCl (stereo not given)
inactive: dose: 100.0 mg/kg/injection, schedule: Q01DX001 (ip), vehicle: saline with Tween-80 104 % of control | dose: 200.0 mg/kg/injection, schedule: Q01DX001 (ip), vehicle: saline with Tween-80 95 % of control | dose: 400.0 mg/kg/injection, schedule: Q01DX001 (ip), vehicle: saline with Tween-80 101 % of control

CCOC(=O)NCC(CCN(C)C)(c1cccc2ccccc12)C(C)CC (stereo not given)
inactive: dose: 25.0 mg/kg/injection, schedule: Q01DX009 (ip), vehicle: Klucel (hydroxypropylcellulose) (HPC) 94 % of control | dose: 50.0 mg/kg/injection, schedule: Q01DX009 (ip), vehicle: Klucel (hydroxypropylcellulose) (HPC) 94 % of control | dose: 50.0 mg/kg/injection, schedule: Q04DX003 (ip), vehicle: Klucel (hydroxypropylcellulose) (HPC) 105 % of control | dose: 100.0 mg/kg/injection, schedule: Q04DX003 (ip), vehicle: Klucel (hydroxypropylcellulose) (HPC) 103 % of control

COC(=O)c1ccc(CBr)cc1
inactive: dose: 25.0 mg/kg/injection, schedule: Q01DX009 (ip), vehicle: saline with Tween-80 97 % of control | [12] 90 % of control | dose: 50.0 mg/kg/injection, schedule: Q04DX003 (ip), vehicle: saline with Tween-80 97 % of control | dose: 100.0 mg/kg/injection, schedule: Q01DX009 (ip), vehicle: saline with Tween-80 98 % of control | [9] 96 % of control

CCCCSC(=N)N
inactive: [13] 94 % of control

CCSC(=O)C1OC(n2cnc3c(N)ncnc32)C2OC(C)(C)OC12 (stereo not given)
inactive: [10] 100 % of control | [11] 102 % of control

NS(=O)(=O)c1cc2c(cc1Cl)NC(CC1CCCC1)NS2(=O)=O (stereo not given)
inactive: [13] 105 % of control | dose: 200.0 mg/kg/injection, schedule: Q01DX001 (ip), vehicle: saline 100 % of control | dose: 400.0 mg/kg/injection, schedule: Q01DX001 (ip), vehicle: saline 107 % of control

COc1ccc(-n2cccc2)cc1
inactive: dose: 100.0 mg/kg/injection, schedule: Q01DX001 (ip), vehicle: steriod suspending solution 95 % of control | [1] 90 % of control | dose: 200.0 mg/kg/injection, schedule: Q01DX001 (ip), vehicle: steriod suspending solution 100 % of control | [2] 90 % of control | dose: 400.0 mg/kg/injection, schedule: Q01DX001 (ip), vehicle: steriod suspending solution 106 % of control | [3] 94 % of control

Nc1cc(Nc2ccccc2)nc(=O)[nH]1
inactive: [7] 94 % of control | [8] 97 % of control

C[n+]1cccc(SC2CCC3CC4CC3C2C4)c1 (stereo not given)
inactive: [12] 91 % of control

O=C(O)c1c(Br)c(Br)c(Br)c(Br)c1C(=O)Nc1ccccc1C(F)(F)F
inactive: [14] 101 % of control | [15] 93 % of control

O=C(Nc1cc(Cl)ccc1Cl)c1cccc(F)c1
inactive: [14] 92 % of control | [15] 98 % of control | dose: 400.0 mg/kg/injection, schedule: Q01DX009 (ip), vehicle: Klucel (hydroxypropylcellulose) (HPC) 98 % of control

CCCCCCCCCC[n+]1ccc(C(N)=O)cc1
inactive: dose: 5.0 mg/kg/injection, schedule: Q01DX009 (ip), vehicle: saline with Tween-80 97 % of control | dose: 5.0 mg/kg/injection, schedule: Q04DX003 (ip), vehicle: saline 97 % of control | dose: 10.0 mg/kg/injection, schedule: Q01DX009 (ip), vehicle: saline with Tween-80 96 % of control | dose: 10.0 mg/kg/injection, schedule: Q04DX003 (ip), vehicle: saline 94 % of control | dose: 20.0 mg/kg/injection, schedule: Q01DX009 (ip), vehicle: saline with Tween-80 96 % of control | dose: 20.0 mg/kg/injection, schedule: Q04DX003 (ip), vehicle: saline 103 % of control

N=Nc1ccc2c(O)c3ccccc3c(O)c2c1
inactive: [16] 107 % of control | dose: 100.0 mg/kg/injection, schedule: Q01DX009 (ip), vehicle: carboxymethylcellulose (CMC) 100 % of control and 103 % of control | dose: 100.0 mg/kg/injection, schedule: Q04DX002 (ip), vehicle: saline 103 % of control | dose: 100.0 mg/kg/injection, schedule: Q04DX003 (ip), vehicle: carboxymethylcellulose (CMC) 101 % of control | [17] 104 % of control | dose: 200.0 mg/kg/injection, schedule: Q01DX009 (ip), vehicle: carboxymethylcellulose (CMC) 98 % of control and 100 % of control | dose: 200.0 mg/kg/injection, schedule: Q04DX002 (ip), vehicle: saline 105 % of control and 106 % of control | dose: 200.0 mg/kg/injection, schedule: Q04DX003 (ip), vehicle: carboxymethylcellulose (CMC) 98 % of control | [18] 105 % of control | dose: 400.0 mg/kg/injection, schedule: Q01DX009 (ip), vehicle: carboxymethylcellulose (CMC) 94 % of control and 96 % of control | dose: 400.0 mg/kg/injection, schedule: Q04DX002 (ip), vehicle: saline 97 % of control and 105 % of control | dose: 400.0 mg/kg/injection, schedule: Q04DX003 (ip), vehicle: carboxymethylcellulose (CMC) 101 % of control

CSc1ncc2n1C=CN(C(=O)c1ccc([N+](=O)[O-])cc1)C2O (stereo not given)
inactive: dose: 25.0 mg/kg/injection, schedule: Q01DX009 (ip), vehicle: saline 89 % of control | [4] 106 % of control | dose: 50.0 mg/kg/injection, schedule: Q01DX009 (ip), vehicle: saline 89 % of control | [5] 111 % of control | [6] 102 % of control

O=S(=O)(O)CCS(=O)(=O)O
inactive: dose: 50.0 mg/kg/injection, schedule: Q01DX001 (ip), vehicle: carboxymethylcellulose (CMC) 97 % of control | [16] 100 % of control | [17] 97 % of control | [18] 97 % of control

Source: PubChem BioAssay AID248 (DTP/NCI, 2004)
